Measurements: patent publication US9604931B2, “Nuclear receptor binding agents” (GTx, Inc., priority 2007, dated 2017)
Entries after “also recorded” stand apart in the source; their conditions may differ.

Experiments:
ER-α = ER-α (Rattus norvegicus (Rat), UniProt P06211); format: cell-based; conditions: 100 nM compound compared to 1 nM estradiol
Experimental: COS or 293 cells were plated in DME without phenol red+10% cs FBS at 90,000 cells per well in 24 well plates, and were transfected with 0.25 μg of the vector “ERE-LUC”, where a firefly luciferase gene was driven by two estrogen responsive elements and 0.02 μg of the control CMV-LUC, Renilla where a luciferase gene was driven by a CMV promoter. […] All the receptors were cloned from rat tissue into the PCR3.1 vector backbone. Twenty four hours post transfection, cells were treated with compounds of this invention, estrogen, DHT, and other NRBAs or combinations thereof. Cells were harvested 48 hrs after transfection, and assayed for firefly and Renilla luciferase activity.

[1] = target: ERβ ligand binding domain (Homo sapiens, UniProt Q92731); test: Competitive [3H]-estradiol binding assay, ER-β (Example 21)
Sequence of ERβ ligand binding domain (Q92731 whole entry, looked up, the tested form may be a part): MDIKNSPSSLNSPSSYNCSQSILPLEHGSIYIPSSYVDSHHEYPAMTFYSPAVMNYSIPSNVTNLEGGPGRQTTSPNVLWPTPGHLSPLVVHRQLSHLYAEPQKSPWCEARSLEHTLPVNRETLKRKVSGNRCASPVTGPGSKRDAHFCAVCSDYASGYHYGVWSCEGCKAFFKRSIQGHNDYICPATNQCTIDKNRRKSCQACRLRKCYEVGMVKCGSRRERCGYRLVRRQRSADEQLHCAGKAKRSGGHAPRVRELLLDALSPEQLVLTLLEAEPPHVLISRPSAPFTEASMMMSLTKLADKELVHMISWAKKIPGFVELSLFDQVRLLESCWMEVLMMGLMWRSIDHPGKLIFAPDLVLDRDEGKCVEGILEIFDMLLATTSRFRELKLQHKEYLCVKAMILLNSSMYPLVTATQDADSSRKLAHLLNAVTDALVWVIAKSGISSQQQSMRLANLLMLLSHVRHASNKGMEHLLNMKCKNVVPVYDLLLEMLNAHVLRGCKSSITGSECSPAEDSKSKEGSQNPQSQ
Experimental: (§1) ER binding affinity was determined via one of the following methods:
(§2) Briefly, the incubation mixture was filtered through a high affinity protein binding filter, and washed several times to remove any unbound radioactivity. The filter plate was air dried and sealed on the bottom.
(§3) Nonspecific binding was subtracted from total binding to yield specific binding.

[2] = target: ERα ligand binding domain (Homo sapiens, UniProt P03372); test: Competitive [3H]-estradiol binding assay, ER-α (Example 21); conditions: 100 nM of compound; read-out: Percent Inhibition of [3H]-Estradiol Binding to ER-α
Sequence of ERα ligand binding domain (P03372 whole entry, looked up, the tested form may be a part): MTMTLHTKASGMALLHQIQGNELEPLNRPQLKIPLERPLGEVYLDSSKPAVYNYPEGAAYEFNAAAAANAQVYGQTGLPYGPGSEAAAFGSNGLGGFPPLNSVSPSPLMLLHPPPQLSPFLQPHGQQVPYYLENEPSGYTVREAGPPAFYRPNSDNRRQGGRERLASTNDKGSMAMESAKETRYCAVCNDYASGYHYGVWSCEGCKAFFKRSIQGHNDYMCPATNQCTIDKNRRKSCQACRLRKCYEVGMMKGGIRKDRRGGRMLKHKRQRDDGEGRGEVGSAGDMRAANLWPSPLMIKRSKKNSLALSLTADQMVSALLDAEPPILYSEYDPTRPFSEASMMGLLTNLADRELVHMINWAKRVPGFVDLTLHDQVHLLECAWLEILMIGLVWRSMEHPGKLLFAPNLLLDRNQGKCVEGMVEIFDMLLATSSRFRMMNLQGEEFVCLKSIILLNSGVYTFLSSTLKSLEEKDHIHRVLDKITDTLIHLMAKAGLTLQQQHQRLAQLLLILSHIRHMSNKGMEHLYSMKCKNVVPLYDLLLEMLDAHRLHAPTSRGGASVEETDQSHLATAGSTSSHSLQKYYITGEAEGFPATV
Experimental: as §1, §2, §3

C-26 colon cancer cells = test: 3H thymidine incorporation, C-26 cells; format: cell-based; conditions: 3 days treatment
Experimental: (§4) The effects of treatment of an ER-β selective NRBA of this invention on cancer cell proliferation was examined using LNCaP prostate cancer cells and C-26 colon cancer cells. LNCaP or C-26 cells were plated in growth medium in 24 well and 6 well plates, respectively. LNCaP cells were treated for 6 days and C-26 cells were treated for 3 days at the indicated concentration. ^3H thymidine incorporation was measured at the end of treatment as an indicator of cell proliferation.

[3] = system: Carrageenan-induced paw edema; test: Carrageenan-induced paw edema; format: in vivo; conditions: per-oral, 1 hr prior to Carrageenan; measured 4 hours post-Carrageenan
Experimental: FIG. 14 depicts the effect of 12b on the edema volume which was induced by Carrageenan (i.e. Carrageenan-induced […] as an acute inflammation model).
To determine the anti-inflammatory effects of ER-β NRBAs in vivo, animal paws were injected with carrageenan, which elicits an acute local inflammatory response.

ER-β = ER-β (Rattus norvegicus (Rat), UniProt Q62986); test: ER-β transactivation (ERE-LUC) in COS or 293 cells; format: cell-based
Sequence of ER-β (Q62986 whole entry): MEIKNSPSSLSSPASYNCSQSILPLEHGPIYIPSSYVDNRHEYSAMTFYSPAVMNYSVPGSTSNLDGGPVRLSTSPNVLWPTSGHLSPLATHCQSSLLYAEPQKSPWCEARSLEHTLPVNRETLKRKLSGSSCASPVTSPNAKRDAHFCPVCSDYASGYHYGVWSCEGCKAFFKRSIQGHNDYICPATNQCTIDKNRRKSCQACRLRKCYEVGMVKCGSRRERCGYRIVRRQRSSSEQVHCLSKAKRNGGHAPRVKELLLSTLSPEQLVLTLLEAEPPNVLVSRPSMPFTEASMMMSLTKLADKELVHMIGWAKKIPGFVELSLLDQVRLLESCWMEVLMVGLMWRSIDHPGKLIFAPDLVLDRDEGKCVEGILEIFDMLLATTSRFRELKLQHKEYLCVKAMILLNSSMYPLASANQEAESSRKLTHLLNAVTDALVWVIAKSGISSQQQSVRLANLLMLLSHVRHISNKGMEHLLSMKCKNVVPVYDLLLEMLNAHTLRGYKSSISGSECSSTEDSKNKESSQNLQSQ

Cyp 3A and/or Cyp 2C9 = test: Cyp inhibition (data not shown); format: in vitro ADME
[4] = system: LNCaP prostate cancer cells; test: 3H thymidine incorporation, LNCaP cells; format: cell-based; conditions: 6 days treatment
Experimental: as §4

[5] = system: LNCaP cells and human prostate stromal cells xenograft; test: LNCaP-stromal cell xenograft tumor growth; format: in vivo, nude mice; conditions: 30 mg/kg/day for 21 days
Experimental: Prostate tumor xenografts were established with LNCaP cells and human prostate stromal cells in nude mice to establish the in vivo anti-proliferative effects of these ER-β NRBAs. A 4:1 ratio (based on cell number) of LNCaP:stroma cells was injected subcutaneously in nude mice and allowed to grow until they attained 100 mm^3 in volume, as measured by calipers. […] Tumor volumes were measured twice a week and percent tumor volume calculated, after 10, 14 and 21 days.

[6] = system: Rat Aortic Smooth Muscle Cells (RASMC); test: RASMC cell proliferation assay (WST-1); format: cell-based; conditions: 10 μM and 30 μM
Experimental: EC50 values were calculated using WinNonLin 5.0.1 using the inhibitory effect sigmoid Emax model.

uterus = test: Uterotropic assay; conditions: 10 mg/kg/day orally, 3 days
Experimental: Statistical differences among groups were evaluated by one-way ANOVA. Rats were treated for 3 consecutive days and then sacrificed 24 h after the last dose. The body of the uterus was cut just above its junction with the cervix and at the junction of the uterine horns with the ovaries. The uterus was weighed with and without intrauterine fluid. Statistical comparisons were made between the weights of empty uteri.

Row | Structure (SMILES) | Estradiol activity at 100 nM of NRBA, ER-α (ER-α) | Ki Ratio (ER-α/ER-β) [1] | Ki ([1]; read-out: ER-β binding constant (Ki)) | inhibition at 0.1 µM ([1]; read-out: Percent Inhibition of [3H]-Estradiol Binding to ER-β) | inhibition at 0.1 µM [2] | Growth of C-26 colon cancer cells (C-26 colon cancer cells) | Reduction in paw edema [3] | ER-β agonist activity (ER-β) | activation at 0.1 µM (ER-β; HEK293, 48 h, read-out: Estradiol activity at 100 nM of NRBA, ER-β, 100 nM compound compared to 1 nM estradiol) | Inhibition of Cyp 3A and/or Cyp 2C9 (Cyp 3A and/or Cyp 2C9) | Growth of LNCaP prostate cancer cells [4] | Xenograft tumor growth [5] | Toxicity to RASMC (cell numbers reduced compared to day 0) [6] | Uterine weight / proliferation of uterus (uterus)
1 | O=c1c2ccc(O)cc2c(Br)cn1-c1ccc(O)cc1 [12b, 4-bromo-6-hydroxy-2-(4-hydroxyphenyl)-isoquinolin-1(2H)-one] | 31.2% | 20 | 49 nM | 53.6% | 0% | significantly inhibited | 53% | ER-β agonists; also recorded: ER-β agonist activity | 79% | exception | significantly inhibited | inhibited the growth of tumor significantly |  | 
2 | CC/C(=C(\c1ccccc1)c1ccc(OCCN(C)C)cc1)c1ccccc1 [Tamoxifen, reference compound] |  |  |  |  |  |  |  |  |  |  |  |  | toxicity | stimulated the proliferation of uterus significantly
